Source: ChEMBL document CHEMBL3045522, “Responses of dry beans (Phaseolus vulgaris L.) to sulfentrazone” (Crop Prot, 2007)

Tests used:
Assay type in all cases: organism-based
Phaseolus vulgaris [1] = assay: Phytotoxicity against Phaseolus vulgaris (White dry beans) assessed as plant height at 420 g a.i./ha applied pre-emergence measured at 28 days post-emergence (reference value: 31 +/- 2 cm); conditions: in vivo, other, 672 h
Phaseolus vulgaris [2] = assay: Phytotoxicity against Phaseolus vulgaris (Otebo dry beans) assessed as reduction in shoot dry weight at 840 g a.i./ha applied pre-emergence measured at 42 days post-emergence relative to control; set-up: scale not given: the % may be the effect or the level left; conditions: in vivo, other, 1008 h
Phaseolus vulgaris [3] = assay: Phytotoxicity against Phaseolus vulgaris (Cranberry dry beans) assessed as visual crop injury at 420 to 840 g a.i./ha applied pre-emergence measured at 28 days post-emergence relative to control; conditions: in vivo, other, 672 h
Phaseolus vulgaris [4] = assay: Phytotoxicity against Phaseolus vulgaris (Pinto dry beans) assessed as yield at 420 g a.i./ha applied pre-emergence (reference value: 3.1 +/- 0.1 tons/ha); conditions: in vivo, other
Phaseolus vulgaris [5] = assay: Phytotoxicity against Phaseolus vulgaris (dry bean) assessed as visual crop injury at 420 g a.i./ha applied pre-emergence measured at 7 days post-emergence relative to control; conditions: in vivo, other, 168 h
Phaseolus vulgaris [6] = assay: Phytotoxicity against Phaseolus vulgaris (White dry beans) assessed as reduction in shoot dry weight at 840 g a.i./ha applied pre-emergence measured at 42 days post-emergence relative to control; set-up: scale not given: the % may be the effect or the level left; conditions: in vivo, other, 1008 h
Phaseolus vulgaris [7] = assay: Phytotoxicity against Phaseolus vulgaris (Black dry beans) assessed as yield at 420 g a.i./ha applied pre-emergence (reference value: 3.4 +/- 0.2 tons/ha); conditions: in vivo, other
Phaseolus vulgaris [8] = assay: Phytotoxicity against Phaseolus vulgaris (Yellow eye dry beans) assessed as visual crop injury at 420 to 840 g a.i./ha applied pre-emergence measured at 28 days post-emergence relative to control; conditions: in vivo, other, 672 h
Phaseolus vulgaris [9] = assay: Phytotoxicity against Phaseolus vulgaris (White dry beans) assessed as visual crop injury at 420 to 840 g a.i./ha applied pre-emergence measured at 28 days post-emergence relative to control; conditions: in vivo, other, 672 h
Phaseolus vulgaris [10] = assay: Phytotoxicity against Phaseolus vulgaris (Brown dry beans) assessed as shoot dry weight at 420 g a.i./ha applied pre-emergence measured at 42 days post-emergence (reference value: 123 +/- 7 g/m); conditions: in vivo, other, 1008 h
Phaseolus vulgaris [11] = assay: Phytotoxicity against Phaseolus vulgaris (Cranberry dry beans) assessed as plant height at 420 g a.i./ha applied pre-emergence measured at 28 days post-emergence (reference value: 33 +/- 1 cm); conditions: in vivo, other, 672 h
Phaseolus vulgaris [12] = assay: Phytotoxicity against Phaseolus vulgaris (Brown dry beans) assessed as yield at 840 g a.i./ha applied pre-emergence (reference value: 2.3 +/- 0.1 tons/ha); conditions: in vivo, other
Phaseolus vulgaris [13] = assay: Phytotoxicity against Phaseolus vulgaris (Kidney dry beans) assessed as yield at 840 g a.i./ha applied pre-emergence (reference value: 1.9 +/- 0.1 tons/ha); conditions: in vivo, other
Phaseolus vulgaris [14] = assay: Phytotoxicity against Phaseolus vulgaris (dry bean) assessed as visual crop injury at 420 g a.i./ha applied pre-emergence measured at 28 days post-emergence relative to control; conditions: in vivo, other, 672 h
Phaseolus vulgaris [15] = assay: Phytotoxicity against Phaseolus vulgaris (Black dry beans) assessed as plant height at 840 g a.i./ha applied pre-emergence measured at 28 days post-emergence (reference value: 28 +/- 1 cm); conditions: in vivo, other, 672 h
Phaseolus vulgaris [16] = assay: Phytotoxicity against Phaseolus vulgaris (Yellow eye dry beans) assessed as yield at 420 g a.i./ha applied pre-emergence (reference value: 2 +/- 0.1 tons/ha); conditions: in vivo, other
Phaseolus vulgaris [17] = assay: Phytotoxicity against Phaseolus vulgaris (Pinto dry beans) assessed as shoot dry weight at 420 g a.i./ha applied pre-emergence measured at 42 days post-emergence (reference value: 134 +/- 11 g/m); conditions: in vivo, other, 1008 h
Phaseolus vulgaris [18] = assay: Phytotoxicity against Phaseolus vulgaris (Black dry bean) assessed as reduction in shoot dry weight applied pre-emergence relative to control; set-up: scale not given: the % may be the effect or the level left; conditions: in vivo
Phaseolus vulgaris [19] = assay: Phytotoxicity against Phaseolus vulgaris (Pinto dry beans) assessed as visual crop injury at 420 to 840 g a.i./ha applied pre-emergence measured at 28 days post-emergence relative to control; conditions: in vivo, other, 672 h
Phaseolus vulgaris [20] = assay: Phytotoxicity against Phaseolus vulgaris (Brown dry beans) assessed as plant height at 840 g a.i./ha applied pre-emergence measured at 28 days post-emergence (reference value: 33 +/- 1 cm); conditions: in vivo, other, 672 h
Phaseolus vulgaris [21] = assay: Phytotoxicity against Phaseolus vulgaris (Cranberry dry beans) assessed as yield at 420 g a.i./ha applied pre-emergence (reference value: 2.7 +/- 0.1 tons/ha); conditions: in vivo, other
Phaseolus vulgaris [22] = assay: Phytotoxicity against Phaseolus vulgaris (White dry beans) assessed as yield at 420 g a.i./ha applied pre-emergence (reference value: 2.9 +/- 0.1 tons/ha); conditions: in vivo, other
Phaseolus vulgaris [23] = assay: Phytotoxicity against Phaseolus vulgaris (Brown dry beans) assessed as yield at 420 g a.i./ha applied pre-emergence (reference value: 2.3 +/- 0.1 tons/ha); conditions: in vivo, other
Phaseolus vulgaris [24] = assay: Phytotoxicity against Phaseolus vulgaris (Kidney dry beans) assessed as shoot dry weight at 420 g a.i./ha applied pre-emergence measured at 42 days post-emergence (reference value: 133 +/- 8 g/m); conditions: in vivo, other, 1008 h
Phaseolus vulgaris [25] = assay: Phytotoxicity against Phaseolus vulgaris (White dry beans) assessed as reduction in yield at 840 g a.i./ha applied pre-emergence relative to control; set-up: scale not given: the % may be the effect or the level left; conditions: in vivo, other
Phaseolus vulgaris [26] = assay: Phytotoxicity against Phaseolus vulgaris (Yellow eye dry beans) assessed as shoot dry weight at 420 g a.i./ha applied pre-emergence measured at 42 days post-emergence (reference value: 142 +/- 8 g/m); conditions: in vivo, other, 1008 h
Phaseolus vulgaris [27] = assay: Phytotoxicity against Phaseolus vulgaris (dry bean) assessed as visual crop injury at 840 g a.i./ha applied pre-emergence measured at 28 days post-emergence relative to control; conditions: in vivo, other, 672 h
Phaseolus vulgaris [28] = assay: Phytotoxicity against Phaseolus vulgaris (Black dry beans) assessed as plant height at 420 g a.i./ha applied pre-emergence measured at 28 days post-emergence (reference value: 28 +/- 1 cm); conditions: in vivo, other, 672 h
Phaseolus vulgaris [29] = assay: Phytotoxicity against Phaseolus vulgaris (brown dry beans) assessed as visual crop injury at 420 to 840 g a.i./ha applied pre-emergence measured at 28 days post-emergence relative to control; conditions: in vivo, other, 672 h
Phaseolus vulgaris [30] = assay: Phytotoxicity against Phaseolus vulgaris (Pinto dry beans) assessed as shoot dry weight at 840 g a.i./ha applied pre-emergence measured at 42 days post-emergence (reference value: 134 +/- 11 g/m); conditions: in vivo, other, 1008 h
Phaseolus vulgaris [31] = assay: Phytotoxicity against Phaseolus vulgaris (Otebo dry beans) assessed as shoot dry weight at 420 g a.i./ha applied pre-emergence measured at 42 days post-emergence (reference value: 156 +/- 10 g/m); conditions: in vivo, other, 1008 h
Phaseolus vulgaris [32] = assay: Phytotoxicity against Phaseolus vulgaris (Otebo dry beans) assessed as yield at 420 g a.i./ha applied pre-emergence (reference value: 3.1 +/- 0.1 tons/ha); conditions: in vivo, other
Phaseolus vulgaris [33] = assay: Phytotoxicity against Phaseolus vulgaris (Cranberry dry beans) assessed as plant height at 840 g a.i./ha applied pre-emergence measured at 28 days post-emergence (reference value: 33 +/- 1 cm); conditions: in vivo, other, 672 h
Phaseolus vulgaris [34] = assay: Phytotoxicity against Phaseolus vulgaris (Yellow eye dry beans) assessed as yield at 840 g a.i./ha applied pre-emergence (reference value: 2 +/- 0.1 tons/ha); conditions: in vivo, other
Phaseolus vulgaris [35] = assay: Phytotoxicity against Phaseolus vulgaris (Kidney dry beans) assessed as visual crop injury at 420 to 840 g a.i./ha applied pre-emergence measured at 28 days post-emergence relative to control; conditions: in vivo, other, 672 h

Cc1nn(-c2cc(NS(C)(=O)=O)c(Cl)cc2Cl)c(=O)n1C(F)F [SULFENTRAZONE]
Activity (Phaseolus vulgaris [1]): 27 cm
Activity (Phaseolus vulgaris [2]): 36%
Activity (Phaseolus vulgaris [3]): 17.6%
Crop_yield (Phaseolus vulgaris [4]): 3.4 tons/ha
Activity (Phaseolus vulgaris [5]): 9%
Activity (Phaseolus vulgaris [6]): 30%
Crop_yield (Phaseolus vulgaris [7]): 2.9 tons/ha
Activity (Phaseolus vulgaris [8]): 13.1%
Activity (Phaseolus vulgaris [9]): 17.9%
Activity (Phaseolus vulgaris [10]): 134 g/m
Activity (Phaseolus vulgaris [11]): 28 cm
Crop_yield (Phaseolus vulgaris [12]): 2.1 tons/ha
Crop_yield (Phaseolus vulgaris [13]): 1.6 tons/ha
Activity (Phaseolus vulgaris [14]): 7%
Activity (Phaseolus vulgaris [15]): 21 cm
Crop_yield (Phaseolus vulgaris [16]): 2 tons/ha
Activity (Phaseolus vulgaris [17]): 149 g/m
Activity (Phaseolus vulgaris [18]): 16%
Activity (Phaseolus vulgaris [19]): 9.2%
Activity (Phaseolus vulgaris [20]): 28 cm
Crop_yield (Phaseolus vulgaris [21]): 2.4 tons/ha
Crop_yield (Phaseolus vulgaris [22]): 2.4 tons/ha
Crop_yield (Phaseolus vulgaris [23]): 2.3 tons/ha
Activity (Phaseolus vulgaris [24]): 128 g/m
Activity (Phaseolus vulgaris [25]): 52%
Activity (Phaseolus vulgaris [26]): 134 g/m
Activity (Phaseolus vulgaris [27]): 22%
Activity (Phaseolus vulgaris [28]): 26 cm
Activity (Phaseolus vulgaris [29]): 7%
Activity (Phaseolus vulgaris [30]): 128 g/m
Activity (Phaseolus vulgaris [31]): 157 g/m
Crop_yield (Phaseolus vulgaris [32]): 3 tons/ha
Activity (Phaseolus vulgaris [33]): 21 cm
Crop_yield (Phaseolus vulgaris [34]): 1.4 tons/ha
Activity (Phaseolus vulgaris [35]): 15.9%
